PubChem BioAssay AID248 (DTP/NCI, 2004)
Values joined by “and” are separate entries in the source; they are usually repeats but may differ in a detail not shown here. Identical values can stand only once. Toxic doses and inconclusive results are not listed. Square brackets hold non-standard residues; d marks the D form. Peptide text beside a SMILES is read from it. ξ: configuration not given here. ξE = NC(CCC(=O)O)C(=O)O

Test system: L1210 leukemia ip in BDF1 mice, survival T/C
Experiment: NCI In Vivo Anticancer Drug Screen. Data for tumor model L1210 Leukemia (intraperitoneal) in B6D2F1 (BDF1) mice
Details: endpoint: mean survival time, higher = longer survival
In short: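 Mice bearing the transplanted tumor received compound or vehicle. Survival of the treated group was divided by that of the vehicle-treated control group to give the ratio.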

[1] = dose: 100.0 mg/kg/injection, schedule: Q01DX009 (ip), vehicle: Klucel (hydroxypropylcellulose) (HPC)
[2] = dose: 100.0 mg/kg/injection, schedule: Q04DX003 (ip), vehicle: Klucel (hydroxypropylcellulose) (HPC)
[3] = dose: 200.0 mg/kg/injection, schedule: Q01DX009 (ip), vehicle: Klucel (hydroxypropylcellulose) (HPC)
[4] = dose: 200.0 mg/kg/injection, schedule: Q04DX003 (ip), vehicle: Klucel (hydroxypropylcellulose) (HPC)
[5] = dose: 400.0 mg/kg/injection, schedule: Q01DX009 (ip), vehicle: Klucel (hydroxypropylcellulose) (HPC)
[6] = dose: 400.0 mg/kg/injection, schedule: Q04DX003 (ip), vehicle: Klucel (hydroxypropylcellulose) (HPC)
[7] = dose: 12.5 mg/kg/injection, schedule: Q04DX003 (ip), vehicle: Klucel (hydroxypropylcellulose) (HPC)
[8] = dose: 25.0 mg/kg/injection, schedule: Q04DX003 (ip), vehicle: Klucel (hydroxypropylcellulose) (HPC)
[9] = dose: 50.0 mg/kg/injection, schedule: Q04DX003 (ip), vehicle: Klucel (hydroxypropylcellulose) (HPC)
[10] = dose: 100.0 mg/kg/injection, schedule: Q01DX001 (ip), vehicle: saline
[11] = dose: 200.0 mg/kg/injection, schedule: Q01DX001 (ip), vehicle: saline
[12] = dose: 400.0 mg/kg/injection, schedule: Q01DX001 (ip), vehicle: saline
[13] = dose: 100.0 mg/kg/injection, schedule: Q04DX002 (ip), vehicle: Klucel (hydroxypropylcellulose) (HPC)
[14] = dose: 200.0 mg/kg/injection, schedule: Q04DX002 (ip), vehicle: Klucel (hydroxypropylcellulose) (HPC)
[15] = dose: 400.0 mg/kg/injection, schedule: Q04DX002 (ip), vehicle: Klucel (hydroxypropylcellulose) (HPC)

## CCOC(=O)N1CC2CCc3c(ccc4ccccc34)N2C1=O (centres undefined)
dose: 100.0 mg/kg/injection, schedule: Q01DX001 (ip), vehicle: other
  T/C: 97 % of control
dose: 200.0 mg/kg/injection, schedule: Q01DX001 (ip), vehicle: other
  T/C: 92 % of control
dose: 400.0 mg/kg/injection, schedule: Q01DX001 (ip), vehicle: other
  T/C: 95 % of control

## O=C1/C(=C\c2ccccc2)SC(=Nc2ccccc2)N1c1ccccc1
[1]
  T/C: 101 % of control
[2]
  T/C: 104 % of control
[3]
  T/C: 98 % of control
[4]
  T/C: 96 % of control
[5]
  T/C: 93 % of control
[6]
  T/C: 94 % of control

## CC(/C=C/c1ccco1)=N\O
dose: 50.0 mg/kg/injection, schedule: Q01DX009 (ip), vehicle: other
  T/C: 105 % of control

## Nc1nc(N)nc(CCCCc2nc(N)nc(N)n2)n1
dose: 200.0 mg/kg/injection, schedule: Q01DX001 (ip), vehicle: carboxymethylcellulose (CMC)
  T/C: 90 % of control

## CCCCCCCCN(C)N=Nc1ccccc1C(=O)O
dose: 12.5 mg/kg/injection, schedule: Q01DX009 (ip), vehicle: Klucel (hydroxypropylcellulose) (HPC)
  T/C: 109 % of control
[7]
  T/C: 102 % of control
dose: 25.0 mg/kg/injection, schedule: Q01DX009 (ip), vehicle: Klucel (hydroxypropylcellulose) (HPC)
  T/C: 106 % of control and 116 % of control
[8]
  T/C: 95 % of control
dose: 50.0 mg/kg/injection, schedule: Q01DX009 (ip), vehicle: Klucel (hydroxypropylcellulose) (HPC)
  T/C: 122 % of control
[9]
  T/C: 108 % of control
dose: 60.0 mg/kg/injection, schedule: Q01DX009 (ip), vehicle: Klucel (hydroxypropylcellulose) (HPC)
  T/C: 122 % of control
[2]
  T/C: 114 % of control
[3]
  T/C: 114 % of control
[5]
  T/C: 92 % of control

## [N-]=[N+]=Nc1ccc(-c2nc(N)nc(N)n2)cc1
dose: 50.0 mg/kg/injection, schedule: Q01DX009 (ip), vehicle: saline
  T/C: 90 % of control
dose: 100.0 mg/kg/injection, schedule: Q01DX009 (ip), vehicle: saline
  T/C: 90 % of control
dose: 100.0 mg/kg/injection, schedule: Q04DX003 (ip), vehicle: acetone
  T/C: 100 % of control
dose: 200.0 mg/kg/injection, schedule: Q01DX009 (ip), vehicle: saline
  T/C: 98 % of control
dose: 200.0 mg/kg/injection, schedule: Q04DX003 (ip), vehicle: acetone
  T/C: 97 % of control
dose: 400.0 mg/kg/injection, schedule: Q04DX003 (ip), vehicle: acetone
  T/C: 90 % of control

## OCC1OC(CO)(c2ccccc2O)C(O)C1O (centres undefined) (tested in a mixture with another compound)
[10]
  T/C: 95 % of control
[11]
  T/C: 97 % of control
[12]
  T/C: 92 % of control

## O=C(CCCC(=O)N/N=C/c1ccc2c(c1)CCC2)N/N=C/c1ccc2c(c1)CCC2
dose: 100.0 mg/kg/injection, schedule: Q04DX003 (ip), vehicle: saline with Tween-80
  T/C: 95 % of control
dose: 200.0 mg/kg/injection, schedule: Q04DX003 (ip), vehicle: saline with Tween-80
  T/C: 97 % of control
dose: 400.0 mg/kg/injection, schedule: Q04DX003 (ip), vehicle: saline with Tween-80
  T/C: 90 % of control

## COC(=O)c1ccc(C(=O)OC)o1
[13]
  T/C: 113 % of control
[14]
  T/C: 98 % of control
[15]
  T/C: 106 % of control

## NCC(=O)NC(CCC(=O)O)C(=O)O (centres undefined) (H-Gly-[ξE]-OH)
dose: 50.0 mg/kg/injection, schedule: Q04DX002 (ip), vehicle: saline
  T/C: 89 % of control
dose: 100.0 mg/kg/injection, schedule: Q04DX002 (ip), vehicle: saline
  T/C: 104 % of control
dose: 200.0 mg/kg/injection, schedule: Q04DX002 (ip), vehicle: saline
  T/C: 93 % of control

## CC(C)(C)C(=O)C/C=N/Nc1ccc([N+](=O)[O-])cc1[N+](=O)[O-]
[10]
  T/C: 96 % of control
[11]
  T/C: 106 % of control
[12]
  T/C: 100 % of control

## CCOC(=O)C(N)Cc1ccc(N(CCCl)CCCl)cc1 (centres undefined)
dose: 0.06 mg/kg/injection, schedule: Q01DX Z (ip), vehicle: saline
  T/C: 99 % of control
dose: 0.13 mg/kg/injection, schedule: Q01DX Z (ip), vehicle: saline
  T/C: 124 % of control
dose: 0.5 mg/kg/injection, schedule: Q01DX Z (oral), vehicle: saline
  T/C: 120 % of control
dose: 2.0 mg/kg/injection, schedule: Q01DX Z (ip), vehicle: saline
  T/C: 122 % of control
dose: 4.0 mg/kg/injection, schedule: Q01DX Z (ip), vehicle: saline
  T/C: 161 % of control and 190 % of control
dose: 4.0 mg/kg/injection, schedule: Q01DX Z (oral), vehicle: saline
  T/C: 162 % of control and 168 % of control
dose: 6.0 mg/kg/injection, schedule: Q01DX Z (ip), vehicle: saline
  T/C: 160 % of control and 164 % of control and 202 % of control
dose: 9.0 mg/kg/injection, schedule: Q01DX Z (ip), vehicle: saline
  T/C: 162 % of control and 164 % of control and 172 % of control
dose: 13.5 mg/kg/injection, schedule: Q01DX Z (ip), vehicle: saline
  T/C: 165 % of control
dose: 16.0 mg/kg/injection, schedule: Q01DX Z (oral), vehicle: saline
  T/C: 87 % of control and 88 % of control
dose: 20.0 mg/kg/injection, schedule: Q01DX Z (ip), vehicle: saline
  T/C: 97 % of control

## CCOC(=O)c1ccc(NC(=O)OC2CCCC2)cc1
[1]
  T/C: 100 % of control
[3]
  T/C: 101 % of control
[5]
  T/C: 92 % of control

## Cc1ccc([N+](=O)[O-])cc1NC(=O)Nc1nccs1
[1]
  T/C: 104 % of control
[3]
  T/C: 101 % of control
[5]
  T/C: 102 % of control

## O=C(O)C(Cc1ccc(O)cc1)NC(=O)N(c1ccccc1)c1ccccc1 (centres undefined)
[10]
  T/C: 95 % of control
[11]
  T/C: 103 % of control
[12]
  T/C: 106 % of control

## CCOC(=O)CCCCCC(C(=O)OCC)c1nc2ccccc2[nH]c1=O (centres undefined)
[13]
  T/C: 99 % of control
[14]
  T/C: 101 % of control
[15]
  T/C: 86 % of control

## CCC(=O)OC1(c2ccccc2)CCN(CC2CC2)CC1C (centres undefined)
dose: 20.0 mg/kg/injection, schedule: Q04DX003 (ip), vehicle: saline
  T/C: 105 % of control
dose: 40.0 mg/kg/injection, schedule: Q04DX003 (ip), vehicle: saline
  T/C: 111 % of control
dose: 80.0 mg/kg/injection, schedule: Q04DX003 (ip), vehicle: saline
  T/C: 91 % of control

## O=C(C1CC2CCC1C2)C1CC2CCC1C2 (centres undefined)
dose: 100.0 mg/kg/injection, schedule: Q01DX009 (ip), vehicle: saline with Tween-80
  T/C: 98 % of control
[2]
  T/C: 97 % of control
dose: 200.0 mg/kg/injection, schedule: Q01DX009 (ip), vehicle: saline with Tween-80
  T/C: 95 % of control
[4]
  T/C: 100 % of control
dose: 400.0 mg/kg/injection, schedule: Q01DX009 (ip), vehicle: saline with Tween-80
  T/C: 96 % of control
[6]
  T/C: 100 % of control

## CN(N=O)C(=O)NC(N)=O
dose: 1.5 mg/kg/injection, schedule: Q01DX009 (ip), vehicle: saline
  T/C: 110 % of control
dose: 1.87 mg/kg/injection, schedule: Q01DX Z (ip), vehicle: carboxymethylcellulose (CMC)
  T/C: 115 % of control
dose: 10.0 mg/kg/injection, schedule: Q01DX Z (ip), vehicle: carboxymethylcellulose (CMC)
  T/C: 188 % of control
dose: 15.0 mg/kg/injection, schedule: Q01DX Z (ip), vehicle: carboxymethylcellulose (CMC)
  T/C: 177 % of control
dose: 30.0 mg/kg/injection, schedule: Q01DX Z (ip), vehicle: carboxymethylcellulose (CMC)
  T/C: 110 % of control
dose: 40.0 mg/kg/injection, schedule: Q01DX Z (ip), vehicle: carboxymethylcellulose (CMC)
  T/C: 91 % of control
dose: 50.0 mg/kg/injection, schedule: Q01DX Z (ip), vehicle: saline
  T/C: 122 % of control
dose: 75.0 mg/kg/injection, schedule: Q01DX Z (ip), vehicle: saline
  T/C: 112 % of control
dose: 100.0 mg/kg/injection, schedule: Q01DX Z (ip), vehicle: saline
  T/C: 92 % of control

## Cc1ccc(S(=O)(=O)CC(O)(/C=C/c2ccccc2)c2ccccc2)cc1 (centres undefined)
dose: 100.0 mg/kg/injection, schedule: Q01DX001 (ip), vehicle: acetone
  T/C: 98 % of control
dose: 200.0 mg/kg/injection, schedule: Q01DX001 (ip), vehicle: acetone
  T/C: 93 % of control
dose: 400.0 mg/kg/injection, schedule: Q01DX001 (ip), vehicle: acetone
  T/C: 89 % of control

## CCCCSP(=O)(Cc1ccccc1)SCCCC
[7]
  T/C: 102 % of control
[8]
  T/C: 95 % of control
[9]
  T/C: 97 % of control

## COc1cc(C2N(c3ccccc3)CCN2c2ccccc2)cc(OC)c1OC
[1]
  T/C: 97 % of control
[2]
  T/C: 90 % of control
[4]
  T/C: 93 % of control
[5]
  T/C: 94 % of control
[6]
  T/C: 95 % of control
